Measured values reported in patent US7888319B2, “Compositions and methods for promoting wound healing and tissue regeneration” (MUSC Foundation for Research Development, priority 2004, dated 2011).
Ends that are not written are not given here.

System: Cx43 gap junction formation
Experiment: Cx43 gap junction formation in cultured neonatal myocytes
Assay type: cell-based, rat
Conditions: 30 μM peptide, 5 days in culture, relative to non-active control peptide and PBS
Protocol: Myocytes from neonatal rat hearts were grown until forming a near-confluent monolayer on a tissue culture dish according to standard protocols. The cultures were subsequently allowed to culture for a further 5 days in culture medium comprising (a) 30 μM ACT 1 peptide (SEQ ID NO:2), (b) 30 μM non-active control peptide (SEQ ID NO:55), or (c) phosphate buffered saline (PBS) containing no ACT peptide or control. Culture media with added peptides or vehicle control was changed every 24 hours during the experiment. […] This increase in Cx43 gap junction formation in response to ACT peptide is shared by a number of cell types expressing Cx43.
Myocytes from neonatal rat hearts were grown until forming a near-confluent monolayer on a tissue culture dish according to standard protocols. The cultures were subsequently allowed to culture for a further 5 days culture medium comprising 30 μM ACT 1 peptide (SEQ ID NO:2), 30 μM non-active control peptide (SEQ ID NO:55), or phosphate buffered saline (PBS) containing no ACT peptide or control peptide. The non-active control peptide comprises a polypeptide with a carboxy terminus in which the ACT peptide sequence has been reversed. […]

In the case of “RPRPDDLEI (not fully specified (N-terminus)) [ACT 1, carboxy-terminal 9 amino acids of human Cx43; amino terminus biotinylated in tests]”, the “extent of Cx43 gap junction formation between myocytes” value is reported as “greatly increased”.
